This note sets out measurements from ChEMBL document CHEMBL1148680 (Bioorg Med Chem Lett, 2006).

For data set [1], the system named is Human immunodeficiency virus. Description: Antiviral activity against HIV BaL in PM1 cell. Format: functional. Particulars: Human immunodeficiency virus 1, BaL.
Data set [2] concerns the target T1, hERG (KCNH2) (Homo sapiens, UniProt Q12809). Put plainly: Inhibition of [3H]dofetilide binding to HERG expressed in HEK293 cells at 100 nM. Format: cell-based. Particulars: HEK293 cells that express hERG, probe [3H]dofetilide.
Data set [3] in a line: Distribution coefficient, log D of the compound. Conditions: octanol/water. The class given is physicochemical.
Data set [4] deals with T1, hERG (KCNH2). Description: Inhibition of [3H]dofetilide binding to HERG expressed in HEK293 cells at 300 nM. The class given is cell-based. Particulars: HEK293 cells that express hERG, probe [3H]dofetilide. For orientation: hERG is a cardiac potassium channel; its block is linked to QT prolongation.
For data set [5], the target named is C-C chemokine receptor type 5 (Homo sapiens, UniProt P51681). Description: Inhibition of [125I]MIP-1beta binding to CCR5 expressed in HEK293 cells. Format: cell-based.
Data set [6] can be described thus: Dissociation constant, pKa of the compound. Format: physicochemical.
Data set [7] concerns the target Voltage-gated inwardly rectifying potassium channel KCNH2 (Homo sapiens, UniProt Q12809). Description: Inhibition of [3H]dofetilide binding to HERG expressed in HEK293 cells. Format: cell-based.

T1 sequence (Q12809 whole entry): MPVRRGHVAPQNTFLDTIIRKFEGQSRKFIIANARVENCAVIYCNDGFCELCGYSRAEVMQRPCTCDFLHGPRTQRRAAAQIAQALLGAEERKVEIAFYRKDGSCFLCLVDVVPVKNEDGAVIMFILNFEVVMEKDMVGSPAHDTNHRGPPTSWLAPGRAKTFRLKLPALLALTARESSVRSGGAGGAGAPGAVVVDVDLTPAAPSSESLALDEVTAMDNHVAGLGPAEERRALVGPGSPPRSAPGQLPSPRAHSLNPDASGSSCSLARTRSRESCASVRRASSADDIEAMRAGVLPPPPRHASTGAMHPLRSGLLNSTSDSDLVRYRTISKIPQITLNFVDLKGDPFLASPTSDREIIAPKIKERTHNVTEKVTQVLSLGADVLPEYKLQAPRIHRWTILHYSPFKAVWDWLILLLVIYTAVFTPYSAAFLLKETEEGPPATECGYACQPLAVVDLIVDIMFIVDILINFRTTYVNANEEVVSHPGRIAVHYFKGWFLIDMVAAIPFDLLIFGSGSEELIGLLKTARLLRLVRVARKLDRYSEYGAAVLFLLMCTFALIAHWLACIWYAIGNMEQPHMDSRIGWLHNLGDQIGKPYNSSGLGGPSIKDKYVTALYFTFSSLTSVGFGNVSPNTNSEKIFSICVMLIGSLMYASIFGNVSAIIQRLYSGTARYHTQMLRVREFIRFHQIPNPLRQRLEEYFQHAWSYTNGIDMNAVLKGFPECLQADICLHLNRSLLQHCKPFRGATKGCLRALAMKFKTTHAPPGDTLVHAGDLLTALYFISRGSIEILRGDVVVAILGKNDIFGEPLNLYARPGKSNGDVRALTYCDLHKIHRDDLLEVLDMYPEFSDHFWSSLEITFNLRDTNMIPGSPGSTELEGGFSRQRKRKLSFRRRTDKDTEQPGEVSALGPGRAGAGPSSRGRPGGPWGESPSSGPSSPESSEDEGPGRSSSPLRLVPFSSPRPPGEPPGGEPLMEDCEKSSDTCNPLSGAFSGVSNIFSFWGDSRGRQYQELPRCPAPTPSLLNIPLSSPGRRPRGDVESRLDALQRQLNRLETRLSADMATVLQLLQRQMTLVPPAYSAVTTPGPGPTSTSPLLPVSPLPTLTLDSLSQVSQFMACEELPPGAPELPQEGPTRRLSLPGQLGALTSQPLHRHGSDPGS
Chain of C-C chemokine receptor type 5 (P51681 whole entry): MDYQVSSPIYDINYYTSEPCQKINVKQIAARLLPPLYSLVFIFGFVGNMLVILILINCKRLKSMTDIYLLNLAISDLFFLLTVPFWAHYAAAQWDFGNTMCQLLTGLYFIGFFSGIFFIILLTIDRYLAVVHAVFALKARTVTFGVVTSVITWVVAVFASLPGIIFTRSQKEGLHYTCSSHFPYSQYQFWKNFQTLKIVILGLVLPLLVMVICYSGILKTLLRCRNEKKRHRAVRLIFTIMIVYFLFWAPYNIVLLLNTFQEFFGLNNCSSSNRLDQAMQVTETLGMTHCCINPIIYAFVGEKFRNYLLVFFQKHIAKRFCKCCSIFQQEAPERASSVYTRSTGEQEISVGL
Chain of Voltage-gated inwardly rectifying potassium channel KCNH2 (Q12809 whole entry): as the sequence (Q12809 whole entry) above

As to `Cc1nnc(C(C)C)n1C1CC2CCC(C1)N2CC[C@H](NC(=O)C1CCC1)c1ccccc1` (stereo partly drawn), the IC90 in data set [1] worked out at 8 nM. This compound also came in with an inhibition at 0.1 µM at hERG (KCNH2) [2] of 14%. The compound further had a logD in data set [3] of 1.6. For the same compound, the inhibition at 0.3 µM on hERG (KCNH2) [4] stood at 30%.

Take `Cc1nnc(Cc2ccccc2)n1C1CCN(CC[C@H](NC(=O)C2CCC2)c2ccccc2)CC1`: in data set [5], the IC50 was found to be 250 nM.

Regarding `Cc1nnc(C)n1C1CCN(CC[C@H](NC(=O)C2CCC2)c2ccccc2)CC1`, the inhibition at 0.1 µM at hERG (KCNH2) [2] amounted to 5%. Besides, the 50% inhibitory concentration (IC50) in data set [5] amounted to 50 nM.

Take `O=C(N[C@@H](CCN1CCC(n2cnc(Cc3ccccc3)n2)CC1)c1ccccc1)C1CCC1`: the IC50 in data set [5] is 5 nM.

Turning to `Cc1nc(C2CCN(CC[C@H](NC(=O)C3CCC3)c3ccccc3)CC2)no1`, the concentration for half-maximal inhibition (IC50) in data set [5] is 70 nM.

For `O=C(N[C@@H](CCN1CCC(c2noc(Cc3ccccc3)n2)CC1)c1ccccc1)C1CCC1`, 0.1 µM produced 50% inhibition on hERG (KCNH2) [2]. Moreover, the IC50 in data set [5] is 20 nM.

For the compound `Cc1nnc(C)n1C1CC2CCC(C1)N2CC[C@H](NC(=O)C1CCC1)c1ccccc1` (stereo partly drawn), the 90% effect level in data set [1] (IC90) was put at 13 nM. The inhibition at 0.1 µM at hERG (KCNH2) [2] was 10%.

In data set [6], `Cc1nc2ccccc2n1C1CC2CCC(C1)N2CC[C@H](NC(=O)C1CCC1)c1ccccc1` (stereo partly drawn) had a pKa of 7.8. The compound also had an inhibition at 0.3 µM at hERG (KCNH2) [4] of 80%.

As to `Cc1nnc(C(C)C)n1C1CC2CCC(C1)N2CC[C@H](NC(=O)C1CCCC1)c1ccccc1` (stereo partly drawn), in data set [1], the IC90 was determined as 2 nM. Also, in data set [3], the log distribution coefficient (logD) stood at 2.1. Also, at hERG (KCNH2) [4], at 0.3 µM the inhibition was 18%.

Take `O=C(Cc1ccc(F)cc1)NC1CCN(CC[C@H](NC(=O)C2CCC2)c2ccccc2)CC1`: the half-maximal inhibitory concentration (IC50) in data set [5] was 0.7 nM.

Compound `Cc1nnc(C(C)C)n1C1CC2CCC(C1)N2CC[C@H](NC(=O)CCC(F)(F)F)c1ccccc1` (stereo partly drawn) yielded an IC90 in data set [1] of 14 nM. Besides, in data set [3], the logD turned out to be 1.8. In addition, testing at 0.3 µM on hERG (KCNH2) [4] gave an inhibition of 14%.

`CC(=O)N(CCOc1ccc(NS(C)(=O)=O)cc1)CCc1ccc(NS(C)(=O)=O)cc1` had an Activity in data set [7] of 0.021 µM.

In the case of `Cc1nnc(C(C)C)n1[C@@H]1C[C@H]2CC[C@@H](C1)N2CC[C@H](NC(=O)C1CCC(F)(F)CC1)c1ccccc1` [MARAVIROC], the logD in data set [3] turned out to be 2.1.

Compound `Cc1nnc(C(C)C)n1[C@H]1C[C@H]2CC[C@@H](C1)N2CC[C@H](NC(=O)C1CCC(F)(F)CC1)c1ccccc1` [MARAVIROC] gave an IC90 in data set [1] of 2 nM.

In turn, `Cc1nc2ccccc2n1C1CC2COCC(C1)N2CC[C@H](NC(=O)C1CCC1)c1ccccc1` (stereo partly drawn) [OXOGRANATANE] came in with an IC50 in data set [5] of 39 nM. The compound further had a pKa in data set [6] of 6. At hERG (KCNH2) [4], this compound registered an inhibition at 0.3 µM of 70%.

Broadly, the IC90 is the concentration needed for an effect of 90%. A higher IC90 goes with a need for much substance. In general, inhibition refers to the drop in the measured response relative to a control, in per cent. In general, logD refers to the decadic logarithm of the distribution of all forms, ionised or not, between an organic phase and buffer at a given pH. Low values mean lower lipophilicity, high ones higher lipophilicity. The term IC50 denotes the concentration at which inhibition is half-maximal. What is called pKa is the negative logarithm of the acid dissociation constant. High values mean a weaker acid or stronger base, low ones a stronger acid or weaker base.
